Converted amounts (≈) assume the structure as drawn.
Legend:
Assay type in all cases: cell-based
[1] = test system: Haemophilus influenzae 1218; assay: MIC, microtiter broth dilution (NCCLS M100-S14), H. influenzae 1218 (susceptible); conditions: Haemophilus influenzae 1218
In short: (§1)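 Where available, resistant strains were tested alongside the susceptible parent they derive from. The MIC, determined by tray-based broth dilution and NCCLS M100-S14 interpretation, served as the comparison value.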

[2] = test system: Streptococcus pneumoniae 1016; assay: MIC, microtiter broth dilution (NCCLS M100-S14), S. pneumoniae 1016 (susceptible); conditions: Streptococcus pneumoniae 1016
In short: as §1

[3] = test system: Streptococcus pneumoniae 1175; conditions: Streptococcus pneumoniae 1175; microtiter broth dilution
In short: as §1

[4] = test system: Streptococcus pneumoniae 1095; conditions: Streptococcus pneumoniae 1095; microtiter broth dilution
In short: as §1

[5] = test system: Streptococcus pyogenes 1079; assay: MIC, microtiter broth dilution (NCCLS M100-S14), S. pyogenes 1079 (ermB); conditions: Streptococcus pyogenes 1079
In short: as §1

CCC1OC(=O)C(C)C(=O)C(C)C(OC2OC(C)CC(N(C)C)C2O)C(C)(OC)CC(C)C(=O)C(C)C2N(C3CN(Cc4c(C)ccc5ccccc45)C3)C(=O)OC12C (stereo not drawn) [Example 1.92, 3-descladinosyl-11,12-dideoxy-6-O-methyl-3-oxo-12,11-(oxycarbonyl-(1-(2-methylnaphthalene-1-methyl)-azetidin-3-yl)-imino)erythromycin A]
MIC H. influenzae 1218 [1]: 2 µg/mL (≈ 2.43 µM)
MIC S. pneumo. 1016 [2]: <0.063 µg/mL
MIC S. pneumo. 1175 [3]: <0.063 µg/mL
MIC S. pneumo. 1095 [4]: 0.125 µg/mL (≈ 0.152 µM)
MIC S. pyogenes 1079 [5]: 2 µg/mL (≈ 2.43 µM)

CCC1OC(=O)C(C)C(=O)C(C)C(OC2OC(C)CC(N(C)C)C2O)C(C)(OC)CC(C)C(=O)C(C)C2N(C3CN(Cc4ccnc5c4ncn5C)C3)C(=O)OC12C (stereo not drawn) [Example 1.93, 3-descladinosyl-11,12-dideoxy-6-O-methyl-3-oxo-12,11-(oxycarbonyl-(1-(3-methyl-3H-imidazo[4,5-b]pyridine-7-methyl)-azetidin-3-yl)-imino)-erythromycin A]
MIC H. influenzae 1218 [1]: 2 µg/mL (≈ 2.46 µM)
MIC S. pneumo. 1016 [2]: <0.063 µg/mL
MIC S. pneumo. 1175 [3]: 1 µg/mL (≈ 1.23 µM)
MIC S. pneumo. 1095 [4]: <0.063 µg/mL
MIC S. pyogenes 1079 [5]: 1 µg/mL (≈ 1.23 µM)

CCC1OC(=O)C(C)C(=O)C(C)C(OC2OC(C)CC(N(C)C)C2O)C(C)(OC)CC(C)C(=O)C(C)C2N(C3CN(Cc4ccc5c(c4)CS(=O)(=O)C5)C3)C(=O)OC12C (stereo not drawn) [Example 1.94]
MIC H. influenzae 1218 [1]: 1 µg/mL (≈ 1.18 µM)
MIC S. pneumo. 1016 [2]: <0.063 µg/mL
MIC S. pneumo. 1175 [3]: 0.25 µg/mL (≈ 0.295 µM)
MIC S. pneumo. 1095 [4]: 0.5 µg/mL (≈ 0.59 µM)
MIC S. pyogenes 1079 [5]: 4 µg/mL (≈ 4.72 µM)

CC[C@H]1OC(=O)[C@H](C)C(=O)[C@H](C)[C@@H](O[C@@H]2O[C@H](C)C[C@H](N(C)C)[C@H]2O)[C@](C)(OC)C[C@@H](C)C(=O)[C@H](C)[C@H]2N(C3CN(Cc4ccnc5c(C#N)cccc45)C3)C(=O)O[C@]12C [Example 1.95, 3-descladinosyl-11,12-dideoxy-6-O-methyl-3-oxo-12,11-(oxycarbonyl-(1-(quinoline-8-carbonitrile-4-methyl)-azetidin-3-yl)-imino)-erythromycin A]
MIC H. influenzae 1218 [1]: 2 µg/mL (≈ 2.4 µM)
MIC S. pneumo. 1016 [2]: <0.063 µg/mL
MIC S. pneumo. 1175 [3]: <0.063 µg/mL
MIC S. pneumo. 1095 [4]: 1 µg/mL (≈ 1.2 µM)
MIC S. pyogenes 1079 [5]: 1 µg/mL (≈ 1.2 µM)

CCC1OC(=O)C(C)C(=O)C(C)C(OC2OC(C)CC(N(C)C)C2O)C(C)(OC)CC(C)C(=O)C(C)C2N(C3CN(Cc4ccc(C#N)c5ncccc45)C3)C(=O)OC12C (stereo not drawn) [Example 1.96, 3-descladinosyl-11,12-dideoxy-6-O-methyl-3-oxo-12,11-(oxycarbonyl-(1-(quinoline-8-carbonitrile-5-methyl)-azetidin-3-yl)-imino)-erythromycin A]
MIC H. influenzae 1218 [1]: 1 µg/mL (≈ 1.2 µM)
MIC S. pneumo. 1016 [2]: <0.063 µg/mL
MIC S. pneumo. 1175 [3]: <0.063 µg/mL
MIC S. pneumo. 1095 [4]: <0.063 µg/mL
MIC S. pyogenes 1079 [5]: 1 µg/mL (≈ 1.2 µM)

CCOc1ccc2ccccc2c1CN1CC(N2C(=O)OC3(C)C(CC)OC(=O)C(C)C(=O)C(C)C(OC4OC(C)CC(N(C)C)C4O)C(C)(OC)CC(C)C(=O)C(C)C23)C1 (stereo not drawn) [Example 1.97, 3-descladinosyl-11,12-dideoxy-6-O-methyl-3-oxo-12,11-(oxycarbonyl-(1-(2-ethoxynaphthalene-1-methyl)-azetidin-3-yl)-imino)-erythromycin A]
MIC H. influenzae 1218 [1]: 0.5 µg/mL (≈ 0.587 µM)
MIC S. pneumo. 1016 [2]: <0.063 µg/mL
MIC S. pneumo. 1175 [3]: <0.063 µg/mL
MIC S. pneumo. 1095 [4]: <0.063 µg/mL
MIC S. pyogenes 1079 [5]: 2 µg/mL (≈ 2.35 µM)

CCC1OC(=O)C(C)C(=O)C(C)C(OC2OC(C)CC(N(C)C)C2O)C(C)(OC)CC(C)C(=O)C(C)C2N(C3CN(Cc4c(C)cnc5ccccc45)C3)C(=O)OC12C (stereo not drawn) [Example 1.98, 3-descladinosyl-11,12-dideoxy-6-O-methyl-3-oxo-12,11-(oxycarbonyl-(1-(3-methylquinoline-4-methyl)-azetidin-3-yl)-imino)-erythromycin A]
MIC H. influenzae 1218 [1]: 2 µg/mL (≈ 2.43 µM)
MIC S. pneumo. 1016 [2]: <0.063 µg/mL
MIC S. pneumo. 1175 [3]: <0.063 µg/mL
MIC S. pneumo. 1095 [4]: <0.063 µg/mL
MIC S. pyogenes 1079 [5]: 0.25 µg/mL (≈ 0.304 µM)

CCC1OC(=O)C(C)C(=O)C(C)C(OC2OC(C)CC(N(C)C)C2O)C(C)(OC)CC(C)C(=O)C(C)C2N(C3CN(Cc4c(C)cnc5ncccc45)C3)C(=O)OC12C (stereo not drawn) [Example 1.99, 3-descladinosyl-11,12-dideoxy-6-O-methyl-3-oxo-12,11-(oxycarbonyl-(1-(3-methyl-1,8-naphthyridine-4-methyl)-azetidin-3-yl)-imino)-erythromycin A]
MIC H. influenzae 1218 [1]: 1 µg/mL (≈ 1.21 µM)
MIC S. pneumo. 1016 [2]: <0.063 µg/mL
MIC S. pneumo. 1175 [3]: <0.063 µg/mL
MIC S. pneumo. 1095 [4]: <0.063 µg/mL
MIC S. pyogenes 1079 [5]: 0.5 µg/mL (≈ 0.607 µM)

CCC1OC(=O)C(C)C(=O)C(C)C(OC2OC(C)CC(N(C)C)C2O)C(C)(OC)CC(C)C(=O)C(C)C2N(C3CN(Cc4c(Cl)cnc5[nH]cnc45)C3)C(=O)OC12C (stereo not drawn) [Example 1.100, 3-descladinosyl-11,12-dideoxy-6-O-methyl-3-oxo-12,11-(oxycarbonyl-(1-(6-chloro-3H-imidazo[4,5-b]pyridine-7-methyl)-azetidin-3-yl)-imino)-erythromycin A]
MIC H. influenzae 1218 [1]: 0.5 µg/mL (≈ 0.6 µM)
MIC S. pneumo. 1016 [2]: <0.063 µg/mL
MIC S. pneumo. 1175 [3]: <0.063 µg/mL
MIC S. pneumo. 1095 [4]: <0.063 µg/mL
MIC S. pyogenes 1079 [5]: 0.125 µg/mL (≈ 0.15 µM)

CCC1OC(=O)C(C)C(=O)C(C)C(OC2OC(C)CC(N(C)C)C2O)C(C)(OC)CC(C)C(=O)C(C)C2N(C3CN(Cc4c(OC)cnc5cccnc45)C3)C(=O)OC12C (stereo not drawn) [Example 1.101, 3-descladinosyl-11,12-dideoxy-6-O-methyl-3-oxo-12,11-(oxycarbonyl-(1-(3-methoxy-1,5-naphthyridine-4-methyl)-azetidin-3-yl)-imino)-erythromycin A]
MIC H. influenzae 1218 [1]: 2 µg/mL (≈ 2.38 µM)
MIC S. pneumo. 1016 [2]: <0.063 µg/mL
MIC S. pneumo. 1175 [3]: <0.063 µg/mL
MIC S. pneumo. 1095 [4]: 0.125 µg/mL (≈ 0.149 µM)
MIC S. pyogenes 1079 [5]: 0.25 µg/mL (≈ 0.298 µM)

CCC1OC(=O)C(C)C(=O)C(C)C(OC2OC(C)CC(N(C)C)C2O)C(C)(OC)CC(C)C(=O)C(C)C2N(C3CN(Cc4c(OC)ccc5ncccc45)C3)C(=O)OC12C (stereo not drawn) [Example 1.102, 3-descladinosyl-11,12-dideoxy-6-O-methyl-3-oxo-12,11-(oxycarbonyl-(1-(6-methoxyquinoline-5-methyl)-azetidin-3-yl)-imino)-erythromycin A]
MIC H. influenzae 1218 [1]: 2 µg/mL (≈ 2.38 µM)
MIC S. pneumo. 1016 [2]: <0.063 µg/mL
MIC S. pneumo. 1175 [3]: <0.063 µg/mL
MIC S. pneumo. 1095 [4]: <0.063 µg/mL
MIC S. pyogenes 1079 [5]: 1 µg/mL (≈ 1.19 µM)

CCC1OC(=O)C(C)C(=O)C(C)C(OC2OC(C)CC(N(C)C)C2O)C(C)(OC)CC(C)C(=O)C(C)C2N(C3CN(Cc4ccc(Cl)cc4Cl)C3)C(=O)OC12C (stereo not drawn) [Example 1.103, 3-descladinosyl-11,12-dideoxy-6-O-methyl-3-oxo-12,11-(oxycarbonyl-(1-(2,4-dichlorobenzene-1-methyl)-azetidin-3-yl)-imino)-erythromycin A]
MIC H. influenzae 1218 [1]: 0.25 µg/mL (≈ 0.302 µM)
MIC S. pneumo. 1016 [2]: <0.063 µg/mL
MIC S. pneumo. 1175 [3]: 0.125 µg/mL (≈ 0.151 µM)
MIC S. pneumo. 1095 [4]: <0.063 µg/mL
MIC S. pyogenes 1079 [5]: 16 µg/mL (≈ 19.4 µM)

From US7462600B2, “Macrolides” (Pfizer Inc, priority 2004, dated 2008)
